Experimental findings from ChEMBL document CHEMBL1201862, “PubChem BioAssay data set” (2004) are described below.

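A five-concentration, 48-hour dose response in 96-well plates underlies each endpoint, interpolated linearly between surrounding concentrations. GI50: concentration for 50% inhibition of growth.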 Activity calls are given as the source filed them. Rule as the data show it: active = GI50 up to about 1.1 µM and inactive = higher.

Among the test systems are 786-0; CAKI-1; COLO 205; HCT-15; HOP-62; Hs-578T; IGROV-1; LOX IMVI; MDA-MB-231; MDA-MB-435; MOLT-4; NCI/ADR-RES; PC-3; RPMI-8226; RXF 393; SF-295; SK-MEL-2; TK-10; UO-31; SK-OV-3.
Holding throughout (test): NCI tumour cell line growth inhibition, 48 h

On to `O=C(c1ccc(Cl)cc1)C(O)c1ccc(Cl)cc1` (centres undefined), for which the GI50 is > 100 µM (inactive) in the assay with 786-0; > 100 µM (inactive) in the assay on CAKI-1; > 100 µM (inactive) in the assay with COLO 205; > 100 µM with HCT-15; > 100 µM (inactive) with HOP-62; 45.3 µM (inactive) in the assay with Hs-578T. The GI50 is 85.3 µM (inactive) with IGROV-1; > 100 µM (inactive) in the assay on LOX IMVI; > 100 µM (inactive) in the assay on MDA-MB-231; > 100 µM (inactive) in the assay with MDA-MB-435; 24.8 µM (inactive) in the assay on MOLT-4; > 100 µM (inactive) in the assay on NCI/ADR-RES. For the same compound, the GI50 in the assay with PC-3 is 46.6 µM (inactive); in the assay with RPMI-8226, 60.4 µM (inactive); in the assay on RXF 393, > 100 µM (inactive); with SF-295 it was > 100 µM (inactive); in the assay with SK-MEL-2, > 100 µM (inactive); in the assay with TK-10 it was 63.4 µM (inactive). In addition, in the assay on UO-31, the GI50 is > 100 µM (inactive).

For the compound `CC1=C[C@@H](C)C[C@]2(C)CC[C@H](O2)[C@]23CC[C@](C)(C[C@H](O2)[C@@H]2O[C@@](C)(CC2=O)[C@@H](O)[C@H]2CC[C@@]4(CCC[C@@H](O4)[C@H](C)C(=O)O[C@H]4C[C@H]([C@]5(O)OCC[C@H](C)[C@@H]5O)O[C@H]4C=C1)O2)O3`, the GI50 was 0.0027 µM (active) in the assay with 786-0; < 0.001 µM (active) in the assay with CAKI-1; 0.00127 µM (active) with COLO 205; 0.00796 µM in the assay on HCT-15; 0.0015 µM (active) with HOP-62; 0.00115 µM (active) with Hs-578T. Besides, the GI50 was 0.00339 µM (active) in the assay on IGROV-1; < 0.001 µM (active) in the assay on LOX IMVI; 0.00528 µM (active) in the assay with MDA-MB-231; 0.0371 µM (active) in the assay on MDA-MB-435; 0.897 µM (active) with NCI/ADR-RES; 0.00229 µM (active) in the assay with PC-3. Moreover, the GI50 in the assay with RXF 393 was 0.00146 µM (active); with SF-295, 0.00113 µM (active); with SK-MEL-2 it was 0.383 µM (active); in the assay with SK-OV-3, 0.00757 µM (active); in the assay with TK-10, 0.00545 µM (active); with UO-31, 0.00408 µM (active).

`Nc1ccc(-c2nc3cc(F)ccc3s2)cc1CO`: the GI50 in the assay with 786-0 was 30.9 µM (inactive); in the assay with CAKI-1, > 56.5 µM (inactive); with COLO 205, > 100 µM (inactive); in the assay on HCT-15 it was 41 µM; in the assay on HOP-62, 17.5 µM (inactive); with Hs-578T it was 34.4 µM (inactive). The GI50 in the assay with IGROV-1 was < 0.01 µM (active); with LOX IMVI it was 62.7 µM (inactive); in the assay with MDA-MB-231, 22.9 µM (inactive); with MDA-MB-435, > 100 µM (inactive); in the assay on MOLT-4 it was > 100 µM (inactive); in the assay on NCI/ADR-RES, 53.6 µM (inactive). In addition, the GI50 in the assay with PC-3 was 29.8 µM (inactive); with RPMI-8226 it was > 100 µM (inactive); in the assay with RXF 393, 15.5 µM (inactive); in the assay on SF-295 it was 14.4 µM (inactive); in the assay with SK-MEL-2, 23.9 µM (inactive); with SK-OV-3, 16.7 µM (inactive). Besides, the GI50 with UO-31 was 18.1 µM (inactive).

For the compound `CSc1ncc2c(n1)-c1ccccc1OC2N1CCOCC1` (centres undefined), the GI50 in the assay with 786-0 is 75.7 µM (inactive); in the assay with CAKI-1 it was 50.8 µM (inactive); in the assay with COLO 205 it was > 100 µM (inactive); in the assay on HCT-15, 53.7 µM; in the assay on Hs-578T, 61.2 µM (inactive); in the assay with IGROV-1, 39.4 µM (inactive). Further, the GI50 with LOX IMVI was 65.5 µM (inactive); in the assay on MDA-MB-231, 83.9 µM (inactive); with MDA-MB-435, > 100 µM (inactive); in the assay on MOLT-4, 43.3 µM (inactive); in the assay on NCI/ADR-RES, 57.1 µM (inactive); in the assay on PC-3, 31.6 µM (inactive). In addition, the GI50 was 49.9 µM (inactive) with RPMI-8226; 53.8 µM (inactive) in the assay on RXF 393; 49.7 µM (inactive) with SF-295; > 100 µM (inactive) with SK-MEL-2; > 100 µM (inactive) in the assay on SK-OV-3; 43.3 µM (inactive) with TK-10. Moreover, in the assay on UO-31, the GI50 is 42.4 µM (inactive).

As to `O=c1c2cc([N+](=O)[O-])ccc2n2n1CCCC2`, the GI50 in the assay with 786-0 was > 100 µM (inactive); in the assay with CAKI-1 it was > 100 µM (inactive); with COLO 205, > 100 µM (inactive); with HCT-15, > 100 µM; with HOP-62 it was > 100 µM (inactive); in the assay on Hs-578T it was > 100 µM (inactive). In addition, the GI50 in the assay on IGROV-1, with LOX IMVI, in the assay on MDA-MB-231, with MDA-MB-435, with MOLT-4 and in the assay on NCI/ADR-RES was > 100 µM (inactive) in each case. The GI50 was > 100 µM (inactive) in the assay on PC-3; > 100 µM (inactive) in the assay on RPMI-8226; > 100 µM (inactive) with RXF 393; > 100 µM (inactive) in the assay with SF-295; > 100 µM (inactive) with SK-OV-3; 24.2 µM (inactive) with TK-10. Besides, in the assay with UO-31, the GI50 is 71.3 µM (inactive).
